Experiment [1] concerns B16-F1 mouse melanoma cells. Briefly: Pigmentation of melanoma cells, visual inspection. The class given is cell-based. The conditions noted are these: 0.5 mM free NB-DNJ, 72 h. The procedure:
Cells were treated with for 72 h in the presence and absence of NB-DNJ free or included in liposomes, transferred into a microtiter plate and pelleted by centrifugation.
Tyrosinase is the regulatory enzyme of melanogenesis in melanocytes. Therefore, inactivation of tyrosinase is associated with lack of pigmentation due to the absence of melanin synthesis in specialized cells. To correlate the results on tyrosinase activity, with the melanin content, the pigmentation of the melanoma cells treated With liposomes was observed. […] The lack of pigmentation in melanoma cells treated with minute amounts of liposomal NB-DNJ correlates well with the abolishment of tyrosinase activity as a result of N-glycosylation processing inhibition, reinforcing the efficiency of the cytoplasmic delivery of the drug encapsulated in liposomes.

For experiment [2], the system named is tyrosinase. The experiment in a line: Tyrosinase activity (DOPA oxidase assay) in lysates of B16-F1 cells cultured with free or liposome-included inhibitor. The settings on record: 24 h after washout following 72 h incubation. Format: cell-based, mouse. The procedure: B16-F1 mouse melanoma cells (European Collection of Animal Cell Culture, Porton Down, U.K.) were cultured in RPMI 1640 medium (Life Technologies, Paisley, Scotland, and U.K.) as described in ref. [8]. Cells were incubated with liposomes for 72 h at 37° C. and their viability was determined by using the trypan blue staining test. Following the incubation time, cells were harvested, washed three times with PBS and lysed in 10 mM phosphate buffer, pH 6.8 containing 1% Nonidet P40 and proteinase inhibitors.
Tyrosinase activity was measured by the DOPA oxidase assay that measures the conversion of DOPA to DOPAchrome via DOPA quinone. Briefly, 50 μl of cell lysate was mixed with 950 μl of 1 mM DOPA in 0.1 M sodium phosphate buffer, pH 7.2 at 37° C. and the reaction was followed spectrophotometrically at 475 nm by the chromogenic appearance of DOPAchroine from 1 mM DOPA (ref. [8]).
To investigate the uptake of liposome encapsulated NB-DNJ in living cells,.the activity of tyrosinase was monitored, a constitutively expressed enzyme of melanoma cells, highly sensitive to small variations of the NB-DNJ concentration in the culture medium (ref. [8]). Inhibition of N-glycosylation processing in the presence of NB-DNJ yields a tyrosinase polypeptide caring Glc3Man7-9GlcNAc glycans. […]

The subject of experiment [3] is tyrosinase. The settings on record: B16 mouse melanoma cells, 0.5 mM-5 mM free NB-DNJ (ref. [6]); cited from earlier work.

Turning to `CCCCN1C[C@H](O)[C@@H](O)[C@H](O)[C@H]1CO` [NB-DNJ, N-butyldeoxynojirimycin], the pigmentation entry in experiment [1] is “dramatic decrease”. The “recovery of tyrosinase activity” value in the experiment with tyrosinase [2] is 75%. Further, the tyrosinase activity result in the experiment with tyrosinase [3] is recorded as “dramatic decrease”.

Values taken from patent publication US20030124160A1, “Targeted drug delivery” (priority 2001, published 2003).
